From patent US20260294874A1, “COMPOSITIONS COMPRISING MODULATORS OF RIBONUCLEOPROTEIN GRANULE FORMATION AND DISSOLUTION AND METHODS OF USE THEREOF” (University of Virginia Patent Foundation, priority 2023, published 2026)
Entries after “also recorded” stand apart in the source; their conditions may differ.

What was measured:
[1] = system: P-bodies (EDC4 foci) in HEK293T cells; test: Immunofluorescence phenotypic screen for P-bodies (α-EDC4) in glucose-deprived HEK293T cells; assay type: cell-based; conditions: glucose-deprived HEK293T cells, 25 μM, 2 h
Method: SuTEx compound treatments. Prior to treatments, cells were washed twice with warm phosphate-buffered saline (PBS) and exchanged with serum-free DMEM (supplemented with 1% L-glutamine) for at least 30 minutes at 37° C. with 5% CO2. Compounds were then added as 1000×DMSO stocks (10 μL for 10 cm dishes and 3 μL for 6-well dishes), plates were mixed gently, and cells were incubated for two hours. All compounds were thoroughly vortexed and sonicated for five minutes prior to addition to ensure complete solvation. For microscopy experiments, cultures were seeded at 150,000 cells in 3 mL of DMEM in 6-well THERMO SCIENTIFIC™ BIOLITE™ brand microwell plates (Catalog No. 12556004; Thermo Fisher Scientific Inc., Waltham, Massachusetts. United States of America). For collection, media was aspirated, and cells were washed once with cold PBS before scraping from plates. Cells were centrifuged at 500×g at 4° C. for 5 minutes and supernatant was removed. Cell pellets were resuspended in cold PBS (1 mL) and centrifuged at 1,400×g at 4° C. for 3 minutes. Supernatant was again removed, and pellets were then snap-frozen in liquid nitrogen and stored at −80° C. until needed.
Immunofluorescence. Immunofluorescence (IF) of HEK293T cells was performed as previously described in Ciancone et al., 2022. HeLa cells were seeded at 9.0×10^4 in a 24-well plate with 12-mm glass coverslips. The next day, the cells were treated with 25 μM SuTEx probe for 2 hours in DMEM medium without FBS. The cells were then treated with 75 μM NaAsO2 for 30 minutes and fixed with 3% paraformaldehyde in PBS for 15 minutes at room temperature (RT) and washed with PBS twice. The fixed cells were permeabilized with PBST (0.1% Triton X-100) for 15 minutes at room temperature and blocked with 5% goat serum in PBST for 30 minutes at RT. The cells were incubated with anti-G3BP1 antibody H-10 (Catalog No. sc-365338 at 1:200 dilution; Santa Cruz Biotechnology, Inc., Dallas, Texas, United States of America) for 2 hours at RT and washed with PBST (0.1% Tween-20) for 5 minutes three times. Next, cells were incubated with goat anti-mouse Alexa 594 antibody (Catalog No. 115-585-003 at 1:800 dilution; Jackson ImmunoResearch, West Grove, Pennsylvania, United States of America) for 30 minutes at RT. The cells were washed twice with PBST, stained with Hoechst 33342 (Catalog No. H3570 at […]; Thermo Fischer Scientific) in PBST for 5 minutes, and washed with PBS twice for 5 minutes. The coverslips were mounted in PROLONG™ Gold AntiFade Mountant (Catalog No. P36930, Thermo Fisher Scientific) and imaged using NIS Elements AR software and a Nikon Eclipse Ti microscope equipped with a ×100 objective and CMOS camera. […] A CellProfiler pipeline was developed to quantify the number of stress granules under each condition. Briefly, cells were recognized as blue^+ (nuclei) red^+ (G3BP1) objects, and the red^+ granules that meet the shape and size threshold were identified and counted. Cells on the border of linages were excluded from the analysis for more accurate quantification.
Data Analysis—Microscopy. All slides were blinded for imaging. Leica SP5X images were analyzed using Fiji (ImageJ). Custom macros were written for analysis and can be obtained upon request. To elaborate, images were split into channels based on the different laser wavelengths measured. Image stacks were then combined using ‘Z-Project’ with an average intensity parameter and a threshold was applied to exclude noise based on the negative control (no EDC4 antibody). The ‘Analyze Particles’ function was used with relevant size and circularity constraints (0.85-1.00) to count the number of foci, with total PBs having a diameter of >150 nm, and large PBs>450 nm. The number of foci was normalized to the number of cells (defined by a DAPI stain count) in each linage, and the number of foci per cell was averaged across technical replicates. Every sample had at least two technical replicates and two independent biological replicates. […]

G3BP1 Y40 = molecular target: T1, G3BP1 Y40 (Homo sapiens, UniProt Q13283); test: Competitive ABPP SILAC LC-MS/MS chemical proteomics, G3BP1 Y40; assay type: cell-based; conditions: stressed HeLa cells, 25 μM, 2 h
T1 construct: liganded site Y40 in NTF2 domain
Method: Preparation of SILAC proteomes for LC-MS/MS analysis. SILAC cell proteomes were fractionated to collect the supernatant and normalized to 2.3 mg/mL in PBS. ‘Heavy’ and ‘light’ proteomes were aliquoted (427 μL) and probe-modified proteins were conjugated to desthiobiotin-PEG-3-azide using copper-catalyze azide-alkyne cycloaddition, trypsinized into peptides using Trypsin/Lys-C Mix (Catalog No. V5071; Promega Corporation, Madison, Wisconsin, United States of America), enriched using PIERCE™ Avidin Agarose brand beads (Catalog No. 20219; Thermo Fisher Scientific Inc., Waltham, Massachusetts. United States of America), and prepared for nano-electrospray ionization-LC-MS/MS analysis as previously described in Hahm et al., 2020.
Data Analysis—Chemical Proteomics. Identification and analysis of peptides and proteins using LC-MS was accomplished using bioinformatics software and quality control parameter protocols as previously described in Hahm et al., 2020.
We performed quantitative liquid-chromatography tandem mass spectrometry (LC-MS/MS) chemical proteomic studies to identify the target protein and binding site(s) of SuTEx fragments with RNP granule modulating activity. […] SILAC light and heavy cells (HEK293T and HeLa) were treated with experimental conditions used for phenotypic screening including the SuTEx ligand pretreatment (25 μM, 2 h) followed by PB (glucose-deprivation, 15 min) and SG induction (75 μM [COMPOUND LEFT OUT], 30 min). Afterwards, cells were lysed, soluble proteomes treated with HHS-465 SuTEx probe (100 μM, 1 h), a global Tyr/Lys-reactive probe used previously for RNP granule investigations (Ciancone et al., 2022), and samples processed to probe-modified peptides for LC-MS/MS analysis as previously reported (Huang et al., 2021), shown in FIG. 10.
We detected ~8,700 probe-modified sites (Tyr and Lys) in our aggregate HeLa and HEK293T chemical proteomic analyses. […]

T1 sequence (Q13283 whole entry, the tested form may be a part): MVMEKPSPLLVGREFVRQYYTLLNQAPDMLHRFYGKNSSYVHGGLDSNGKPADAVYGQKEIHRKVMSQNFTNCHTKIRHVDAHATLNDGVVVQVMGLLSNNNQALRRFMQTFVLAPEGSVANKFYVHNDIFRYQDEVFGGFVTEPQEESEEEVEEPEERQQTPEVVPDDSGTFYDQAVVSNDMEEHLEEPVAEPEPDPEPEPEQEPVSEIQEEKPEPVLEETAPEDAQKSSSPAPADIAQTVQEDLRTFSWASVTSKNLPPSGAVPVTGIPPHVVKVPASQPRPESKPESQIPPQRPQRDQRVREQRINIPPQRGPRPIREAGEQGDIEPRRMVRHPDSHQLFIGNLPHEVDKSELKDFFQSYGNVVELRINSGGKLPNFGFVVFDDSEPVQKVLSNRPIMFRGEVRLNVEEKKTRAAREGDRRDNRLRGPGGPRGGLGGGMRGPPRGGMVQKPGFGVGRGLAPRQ

SILAC ratio (SR), G3BP1 Y40 (G3BP1 Y40; HHS-465 100 μM, DMSO (light)/ligand (heavy))	SMILES	effect on PBs (in words) [1]	liganding of G3BP1 Y40 (in words) (G3BP1 Y40)
	CC(C)c1cc(C(C)C)c(S(=O)(=O)n2cc(-c3ccc(C(F)(F)F)cc3)nn2)c(C(C)C)c1 [AHL-003]	block both types of RNP granules; also recorded: inhibited	
	COc1ccc(S(=O)(=O)n2cc(CS(C)(=O)=O)nn2)cc1 [AHL-030, 1-((4-Methoxyphenyl)sulfonyl)-4-((methylsulfonyl)methyl)-1H-1,2,3-triazole]	PB-inhibitory; also recorded: modestly inhibiting PBs; also recorded: decreased PBs	
	N#Cc1ccc(S(=O)(=O)n2cc(-c3cccc(Cl)c3)nn2)cc1 [EKT231, 4-((4-(3-Chlorophenyl)-1H-1,2,3-triazol-1-yl)sulfonyl)benzonitrile]		lack of binding activity
> 2	COc1ccc(S(=O)(=O)n2cc(C3CCCCC3)nn2)cc1 [HHS-166, 4-Cyclohexyl-1-((4-methoxyphenyl)sulfonyl)-111-1,2,3-triazole]		liganded G3BP1 Y40; also recorded: liganded site (Y40)
